# Source: patent US12364695B2, “Methods of treating inflammatory disease” (INTRA-CELLULAR THERAPIES, INC., priority 2020, dated 2025)
# Experiments:
# [1] = system: Arachidonic Acid Metabolites; assay: Detection of arachidonic acid metabolites, mouse zymosan pleurisy model; format: in vivo; conditions: compared with controls
# Procedure: (§1) Zymosan was injected into the pleural cavities of mice in order to induce sterile inflammation by the methods discussed in Example 1. Compound 1 was administered to test subjects to observe the effects on a variety of inflammatory biomarkers. Results were recorded after 4 hours. […] IFNγ, IL-1β, MCP1-β and TNF-α decreased following administration of Compound 1 in all serum and plasma samples.
# (§2) Lipids are known to be involved in regulation of a multitude of cellular responses including cell growth and death, and inflammation/infection, via receptor-mediated pathways. Various lipids are involved in both the initiation and resolution of inflammation. Pro-resolving lipid mediators are produced naturally in the body from unsaturated fatty acids, such as arachidonic acid (AA) and docosahexaenoic acid (DHA). Further studies were carried out to identify metabolites of AA and DHA, which are summarized below in Tables 2 and 3.
# (§3) As shown above in relation to AA metabolism, 12-HETE and 15-HETE, both intermediate mediators leading to resolution of inflammation, show increased occurrence compared with controls, while pro-inflammatory mediators TXB2, PGE2 and LTB4 all decrease. For the metabolism of DHA, each of 17-HDOHE, RVD5 and 14-HDOHE increase, all of which are related to resolution of inflammation.
# [2] = system: cytokine markers (IFNγ, IL-1β, MCP1-β, TNF-α, IL10); assay: Inflammatory biomarkers in mouse zymosan pleurisy model; format: in vivo; conditions: after 4 hours
# Procedure: as §1
# [3] = system: MCP-1/CCL2; assay: Cytokine production in plasma following zymosan sterile insult (FIG. 7); format: in vivo, mouse; conditions: at 3 and 7 days, in comparison with control groups
# Procedure: FIG. 7 depicts cytokine production in plasma in test subjects following sterile insult when treated with Compound 1.
# (§4) Zymosan is injected into the pleural cavities of mice in order to induce sterile inflammation. Infiltration of leukocytes, neutrophils, and macrophages are monitored at days 3 and 7 following injection. Detection of various cell types are identified according to the gating strategy outlined in Table 1 below.
# [4] = system: leukocytes, neutrophils, and macrophages (M1/M2) at the site of inflammation; assay: Mouse zymosan model of sterile inflammation, flow cytometry of infiltrating cells; format: in vivo; conditions: for inflammatory resolution (shift from M1 to M2 macrophages): zymosan injection, FIGS. 1-9
# Procedure: as §4
# In this model, injection of zymosan causes the recruitment of various waves of leukocytes, which are observed and recorded. Exudate volume increases to a maximum over a period of 24 hours, and neutrophils increase within 4 hours and reach a maximum by 48 hours. Lymphocytes of the adaptive immune system enter at a later stage, after three days, which is signaled by macrophages presenting antigens. A resolution phase is well documented in this model and is accompanied by decreased total macrophage number and transition into M2 phenotype.
# In the studies, Compounds 1 and 2 were administered to the test subjects, and the effect the compounds had on infiltration of leukocytes, neutrophils, and macrophages was observed.
# Similar tests were conducted with Compound 2, the results of which are illustrated in FIGS. 8 and 9. […] An additional test was carried out according to the same method. Mice were injected intraperitoneally with 1 mg Zymosan followed by 10 mg/kg Compound 1. Macrophage levels were recorded at injection, then at 4, 8, 16, 24, 48 and 72 hours post-injection.
# [5] = system: BV2 cells; assay: Microglia chemotaxis assay (Transwell, ADP); format: cell-based; conditions: 100 μM ADP, 4 hours, FIG. 10
# Procedure: BV2 cells were added to upper chamber of a 5 μm pore Transwell 96-well plate over a reservoir containing 100 μM ADP and incubated at 37° C. with 5% CO2 for 4 hours. After the incubation cells were harvested with pre-warmed cell detachment solution for 30 minutes in the same incubation conditions. 75 μl of this cell detachment solution was combined with 75 μl of culture medium in a new 96 well plate compatible with a fluorescence reader. Cell number in bottom chamber was determined by adding CyQuant® GR dye and reading in the Envision fluorescence reader at 480 nm EX/520 nm EM.
# [6] = system: Docosahexaenoic Acid Metabolites; assay: Detection of docosahexaenoic acid metabolites, mouse zymosan pleurisy model; format: in vivo; conditions: compared with controls
# Procedure: as §1, §2, §3
smiles,measurement,setting,value
CN1C(=O)c2c(nn(Cc3ccc(-c4cccc(F)n4)cc3)c2Nc2ccccc2)N2C1=N[C@@H]1CCC[C@@H]12 [Compound 1],5-HETE (intermediate mediator linked to resolution),[1],No change
same,12-HETE (intermediate mediator linked to resolution),[1],Increase
same,15-HETE (intermediate mediator linked to resolution),[1],Increase
same,LTB4 (pro-inflammatory mediator),[1],No change
same,PGE2 (pro-inflammatory mediator),[1],Decrease
same,TXB2 (pro-inflammatory mediator),[1],Decrease
same,IFNγ,[2]; serum and plasma,decreased
same,IL-1β,[2]; serum and plasma,decreased
same,MCP1-β,[2]; serum and plasma,decreased
same,TNF-α,[2]; serum and plasma,decreased
same,IL10,[2]; serum,decrease
same,inflammatory biomarkers (MCP-1/CCL2) in plasma,[3],less inflammatory biomarkers
same,"M1 macrophage levels (CD80+, iNOS+)","[4]; 1 mg Zymosan i.p. then 10 mg/kg, all observed times, FIGS. 11A and 11B",lower
same,Arg1+ M2 macrophages,"[4]; 10 mg/kg, at 4 hours, FIG. 12A",increased
same,CD206+ M2 macrophages,"[4]; 10 mg/kg, relative to control at 2 and 3 days, FIG. 12B",significantly increased
same,total numbers of CD38+ macrophages,"[4]; day 3, FIG. 5A",decreased
same,number of Egr2+ macrophages,"[4]; day 3, all animal groups, FIG. 5B",decreased
same,MFI for CD38+ on macrophages,"[4]; day 3, increase in all groups, FIG. 6A",lowest value
same,MFI for CD38+ on macrophages,"[4]; day 7, all groups",decreased
same,percentage of neutrophils relative to CD45+ leukocytes,"[4]; day 7, all subjects, FIG. 3B",dropped significantly
same,number of neutrophils,"[4]; day 7, compared with disease only and vehicle animals, FIG. 3A",less dramatic decrease
same,MFI for Egr2+ on macrophages,"[4]; days 3 and 7, compared to naïve, all groups",decreased
same,Egr2+ cell number and percent,"[4]; overall trend, day 7",tended to increase
same,number of CD38+ cells,"[4]; overall trend, day 7",tended to decrease
same,inflammatory resolution (shift from M1 to M2 macrophages),[4],enhanced inflammatory resolution
same,motility of BV2 cells across the membrane,[5],marked dampening effect
same,14-HDOHE (resolution mediator),[6],Increase
same,17-HDOHE (intermediate mediator linked to resolution),[6],Increase
same,RVD5 (intermediate mediator linked to resolution),[6],Increase
CN1C(=O)c2c(nn(Cc3ccc(-c4ccccn4)cc3)c2Nc2ccccc2)N2C1=N[C@@H]1CCC[C@@H]12 [Compound 2],CD38+ macrophages,"[4]; 3 mg/kg, day 7, FIG. 8",significant drop
same,Erg2+ macrophages,"[4]; 3 mg/kg, day 7, FIG. 9",sharp and significant increase
same,inflammatory resolution (shift from M1 to M2 macrophages),[4],enhanced inflammatory resolution
